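Grown in 96-well plates, cells were treated for 48 hours with each compound at five concentrations. Insufficient inhibition: endpoint recorded as highest concentration tested. TGI denotes the concentration required for complete inhibition of growth.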
Experiments:
Assay in all cases: inhibition of tumour cell growth, NCI panel, 48 h
NCI-H23 lung = system: NCI-H23 lung
SNB-19 CNS = system: SNB-19 CNS
IGROV1 ovarian = system: IGROV1 ovarian
SK-MEL-5 melanoma = system: SK-MEL-5 melanoma
NCI-H226 lung = system: NCI-H226 lung
LXFL 529 NSCLC = system: LXFL 529 NSCLC
T-47D breast = system: T-47D breast
EKVX NSCLC = system: EKVX NSCLC
HOP-18 NSCLC = system: HOP-18 NSCLC
RXF-631 renal = system: RXF-631 renal
DMS 273 small cell lung = system: DMS 273 small cell lung
XF 498 CNS = system: XF 498 CNS

Row | SMILES | TGI (NCI-H23 lung) | TGI (SNB-19 CNS) | TGI (IGROV1 ovarian) | TGI (SK-MEL-5 melanoma) | TGI (NCI-H226 lung) | TGI (LXFL 529 NSCLC) | TGI (T-47D breast) | TGI (EKVX NSCLC) | TGI (HOP-18 NSCLC) | TGI (RXF-631 renal) | TGI (DMS 273 small cell lung) | TGI (XF 498 CNS)
1 | CCN(CC)CCn1ccc(=O)c2cc3c(=O)ccn(CCN(CC)CC)c3c(C)c21 | 19.3 µM | 18.3 µM | 22 µM | 29.1 µM | 23.8 µM | 16.5 µM | 50 µM | 18.8 µM | 30 µM | 21.5 µM | 15.1 µM | 21.4 µM
2 | N#C/C(=C1\OC(=O)C(c2ccc(Br)cc2)=C1O)c1ccc(Br)cc1 | 26.2 µM | 27.5 µM | 34.4 µM | – | 34 µM | 22.1 µM | – | 31.6 µM | 26.3 µM | 92.6 µM | 48.2 µM | 25.6 µM
3 | CCOC(=O)C1=C(C)N(Cc2ccccc2)C(C)=C(C(=O)OCC)C1c1ccccc1O | 57.7 µM | > 100 µM | > 100 µM | 30.3 µM | 80.4 µM | 71 µM | – | 95.9 µM | > 100 µM | > 100 µM | > 100 µM | 51.3 µM
4 | CN(C(=O)C12C3C4C5C3C1(C(=O)O)C5C42)C(C)(C)C (stereo not given) | > 100 µM | > 100 µM | > 100 µM | > 100 µM | > 100 µM | > 100 µM | – | > 100 µM | > 100 µM | > 100 µM | 33.5 µM | > 100 µM
5 | CC1=NOC(=O)/C1=C/c1ccccc1O | > 100 µM | > 100 µM | > 100 µM | > 100 µM | > 100 µM | > 100 µM | – | > 100 µM | > 100 µM | > 100 µM | > 100 µM | > 100 µM
6 | O=C(O)c1ccc([Se][Se]c2ccc(C(=O)O)cc2)cc1 | 37.6 µM | > 100 µM | 71.1 µM | – | 76.5 µM | 62.4 µM | – | 64.3 µM | 82.3 µM | 52.6 µM | 49.7 µM | 81.1 µM
7 | CNC(=O)OCc1nc(SC2CCCCO2)n(C)c1COC(=O)NC (stereo not given) | > 100 µM | > 100 µM | > 100 µM | > 100 µM | > 100 µM | > 100 µM | – | > 100 µM | > 100 µM | > 100 µM | > 100 µM | > 100 µM
8 | CC(C)C(=O)Nc1nc2nc[nH]c2c(=O)[nH]1 | > 100 µM | > 100 µM | > 100 µM | > 100 µM | > 100 µM | > 100 µM | – | > 100 µM | > 100 µM | > 100 µM | > 100 µM | > 100 µM
9 | CCCCCCCCCCCCOC(=S)NCCCC | 57.9 µM | > 100 µM | 81.1 µM | – | 45.1 µM | > 100 µM | – | 47.8 µM | 89.1 µM | 55.6 µM | 41 µM | 31.9 µM
10 | COCCN1C2=CCCCC2=Nc2c1nc(N)[nH]c2=O | > 100 µM | > 100 µM | > 100 µM | > 100 µM | > 100 µM | > 100 µM | – | > 100 µM | > 100 µM | > 100 µM | > 100 µM | > 100 µM
11 | C=C1C(=O)O[C@H]2[C@H]1[C@H](OC(=O)/C(C)=C\C)CC(=C)[C@@H]1[C@H](O)[C@H]3O[C@@]3(C)[C@@]12O | > 100 µM | > 100 µM | > 100 µM | > 100 µM | – | > 100 µM | – | > 100 µM | > 100 µM | > 100 µM | > 100 µM | > 100 µM
12 | CCCc1[nH]nc(CCC(=O)N(Cc2ccccc2)Cc2ccccc2)c1CC | > 100 µM | > 100 µM | > 100 µM | > 100 µM | > 100 µM | > 100 µM | – | > 100 µM | > 100 µM | > 100 µM | > 100 µM | > 100 µM
13 | c1cc(-c2cn3ccsc3n2)ccn1 | > 100 µM | > 100 µM | > 100 µM | > 100 µM | > 100 µM | > 100 µM | – | 98.7 µM | > 100 µM | > 100 µM | > 100 µM | > 100 µM
